{
  "source": "patent US5502164A",
  "about": "“Peptide compounds having therapeutic activity” (priority 1992, dated 1996)",
  "target": "T1, CCK-A receptors in rat pancreatic membranes (Rattus norvegicus, UniProt P30551)",
  "T1 construct": "CCK-A receptors in rat pancreatic membranes; from tissue; host or cells: rat pancreas (membranes)",
  "T1 sequence (P30551 1-444)": "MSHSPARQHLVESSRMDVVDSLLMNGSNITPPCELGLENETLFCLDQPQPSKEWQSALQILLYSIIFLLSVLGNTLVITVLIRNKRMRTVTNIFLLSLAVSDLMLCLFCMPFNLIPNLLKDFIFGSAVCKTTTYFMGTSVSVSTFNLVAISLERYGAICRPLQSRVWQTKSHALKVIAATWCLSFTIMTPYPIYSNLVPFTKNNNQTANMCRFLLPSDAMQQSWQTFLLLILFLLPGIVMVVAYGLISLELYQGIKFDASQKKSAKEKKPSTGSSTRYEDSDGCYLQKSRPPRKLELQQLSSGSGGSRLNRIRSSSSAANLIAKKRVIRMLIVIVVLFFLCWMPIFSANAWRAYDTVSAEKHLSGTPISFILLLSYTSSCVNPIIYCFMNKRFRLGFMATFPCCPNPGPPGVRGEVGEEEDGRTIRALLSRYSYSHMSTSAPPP",
  "test": "Test B: CCK-A binding",
  "settings": "against Bolton Hunter 125I-CCK-8 and 3H-L364718, read-out: binding constant (Ki) at CCK-A receptors",
  "method": "Evaluation of a test compound for its ability to bind to CCK-A receptors in rat pancreatic membranes is measured against the binding of Bolton Hunter^125 I-CCK-8 and ^3 H-L364718 to rat pancreas according to the procedures of Chang, Lotti, Chan and Kunkel (Molecular Pharmacology, 30:212-216, 1986).",
  "note": "Where a SMILES comes first, the peptide text is derived from it. [ ]: non-standard residue; d: D form. The star is where a group is joined. dNMeD = CN[C@H](CC(=O)O)C(=O)O; Nle = CCCC[C@H](N)C(=O)O; X1 = O=C(Cc1ccc(O)cc1)*",
  "data": [
    {"smiles": "CCCC[C@H](NC(=O)Cc1ccc(O)cc1)C(=O)NCC(=O)N[C@@H](Cc1c[nH]c2ccccc12)C(=O)N[C@@H](CCCC)C(=O)N(C)[C@H](CC(=O)O)C(=O)N[C@@H](Cc1ccccc1)C(N)=O", "note": "[Example 49, Hpa-Ahx-Gly-Trp-Ahx-MeDAsp-Phe-NH2] (X1-[Nle]GW[Nle][dNMeD]F-NH2)", "values": [
      {"measurement": "Ki", "value": 0.03, "unit": "nM"}
    ]}
  ]
}
